These are literature values, as cited in patent US8173824B2, “Process for producing vitamin D derivative using convergent method” (Chugai Seiyaku Kabushiki Kaisha, priority 2005, dated 2012).

For data set [1], the system named is human keratinocyte. Particulars: background statement, see WO 2001/096293.
The conditions of data set [2]: compared with the conventional vitamin D derivatives; background statement.

Consider `C=C1/C(=C\C=C2/CCC[C@]3(C)C([C@H](C)OCC(=O)NCC(F)(F)C(F)(F)F)=CCC23)C[C@@H](O)C[C@@H]1O` (stereo partly drawn) [Formula (1), [{(5Z,7E)-(1S,3R,20S)-1,3-dihydroxy-9,10-secopregna-5,7,10(19),16-tetraen-20-yl}oxy]-N-(2,2,3,3,3-pentafluoropropyl)acetamide], for which the “human keratinocyte growth inhibition activity” value in data set [1] was “exhibits useful human keratinocyte growth inhibition activity”. Besides, the calcium level-raising activity result in data set [2] is “lower than the conventional vitamin D derivatives”.
